Strand notation (5' to 3'): a small letter for the sugar, then the base; units joined by * are phosphorothioate-linked, units joined directly phosphodiester-linked; [ ] holds rarer units or linkages, { } end groups; capitals alone tell only the bases. e = 2'-O-(2-methoxyethyl) (MOE); [5mC] = 5-methylcytosine; d = 2'-deoxy (DNA)
Assays:
[1] = tested on: human PKK mRNA; experiment: Antisense inhibition of human PKK mRNA in HepaRG cells, 5,000 nM (Example 2); type: cell-based; details: HepaRG cells, electroporation with 5,000 nM antisense oligonucleotide, PKK mRNA by RT-PCR (RTS3454), relative to untreated control cells
How it was run: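 HepaRG cells, 20,000 per well, were electroporated with 5,000 nM MOE gapmer (phosphorothioate, 5-methylcytosine) and incubated about 24 hours. PKK mRNA was quantified by qRT-PCR with primer probe set RTS3454, normalized to RIBOGREEN total RNA, and expressed as percent inhibition versus untreated controls.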

[2] = tested on: human PKK mRNA; experiment: Dose-dependent antisense inhibition of human PKK in HepaRG cells, 0.19-5.00 uM (Example 5); type: cell-based; details: for percent inhibition of PKK mRNA, 0.19 μM: 0.19 μM antisense oligonucleotide; for percent inhibition of PKK mRNA, 0.56 μM: 0.56 μM antisense oligonucleotide; for percent inhibition of PKK mRNA, 1.67 μM: 1.67 μM antisense oligonucleotide; for percent inhibition of PKK mRNA, 5.00 μM: 5.00 μM antisense oligonucleotide
Experimental: Cells were plated at a density of 20,000 cells per well and transfected using electroporation with 0.19 μM, 0.56 μM, 1.67 μM, and 5.00 μM concentrations of antisense oligonucleotide. After a treatment period of approximately 16 hours, RNA was isolated from the cells and PKK mRNA levels were measured by quantitative real-time PCR. Human PKK primer probe set RTS3454 was used to measure mRNA levels. PKK mRNA levels were adjusted according to total RNA content, as measured by RIBOGREEN®. The antisense oligonucleotides were tested in a series of experiments that had similar culture conditions.
The half maximal inhibitory concentration (IC50) of each oligonucleotide is also presented.

[3] = approximately 24 hours, Table 6 experiment
[4] = HepaRG cells, electroporation, approximately 16 hours, Table 38
[5] = 4 point dose response, HepaRG cells, Table 38
[6] = HepaRG cells, electroporation, approximately 16 hours, Table 35
[7] = 4 point dose response, HepaRG cells, Table 35
[8] = HepaRG cells, electroporation, approximately 16 hours, Table 37
[9] = HepaRG cells, electroporation, approximately 16 hours, Table 41
[10] = 4 point dose response, HepaRG cells, Table 41
[11] = HepaRG cells, electroporation, approximately 16 hours, Table 36
[12] = HepaRG cells, electroporation, approximately 16 hours, Table 39
[13] = Table 34, HepaRG, electroporation, ~16 h

546195 (antisense eG*e[5mC]*eT*eA*eA*d[5mC]*d[5mC]*dT*dT*dA*dG*dA*d[5mC]*dA*d[5mC]*eA*eT*eT*eA*eA) [compound 546195]
% inhibition [1, 3]: 83% | percent inhibition of PKK at 0.19 μM [2, 4]: 34% | percent inhibition of PKK at 0.56 μM [2, 4]: 51% | percent inhibition of PKK at 1.67 μM [2, 4]: 79% | percent inhibition of PKK at 5.00 μM [2, 4]: 92% | IC50 [2, 5]: 500 nM | percent inhibition of PKK mRNA, 0.19 μM ([2]; HepaRG cells): 0% | percent inhibition of PKK mRNA, 0.56 μM ([2]; HepaRG cells): 27% | percent inhibition of PKK mRNA, 1.67 μM ([2]; HepaRG cells): 91% | percent inhibition of PKK mRNA, 5.00 μM ([2]; HepaRG cells): 94% | IC50 ([2]; HepaRG cells, 0.19-5.00 μM): 900 nM

546198 (antisense eT*e[5mC]*eT*eT*e[5mC]*dA*dA*d[5mC]*dA*d[5mC]*dT*dG*d[5mC]*dT*dA*eA*e[5mC]*e[5mC]*eT*eT) [compound 546198]
% inhibition [1, 3]: 85% | percent inhibition of PKK at 0.19 μM [2, 4]: 7% | percent inhibition of PKK at 0.56 μM [2, 4]: 3% | percent inhibition of PKK at 1.67 μM [2, 4]: 45% | percent inhibition of PKK at 5.00 μM [2, 4]: 92% | IC50 [2, 5]: 1300 nM

546208 (antisense e[5mC]*eG*eT*eT*eA*d[5mC]*dT*d[5mC]*dA*dG*d[5mC]*dA*d[5mC]*d[5mC]*dT*eT*eT*eA*eT*eA) [compound 546208]
% inhibition [1, 3]: 92% | percent inhibition of PKK at 0.19 μM [2, 6]: 16% | percent inhibition of PKK at 0.56 μM [2, 6]: 45% | percent inhibition of PKK at 1.67 μM [2, 6]: 79% | percent inhibition of PKK at 5.00 μM [2, 6]: 91% | IC50 [2, 7]: 700 nM | percent inhibition of PKK mRNA, 0.19 μM ([2]; HepaRG cells): 5% | percent inhibition of PKK mRNA, 0.56 μM ([2]; HepaRG cells): 33% | percent inhibition of PKK mRNA, 1.67 μM ([2]; HepaRG cells): 70% | percent inhibition of PKK mRNA, 5.00 μM ([2]; HepaRG cells): 97% | IC50 ([2]; HepaRG cells, 0.19-5.00 μM): 900 nM

546214 (antisense eG*eA*eG*eA*eA*d[5mC]*d[5mC]*d[5mC]*dT*dG*dG*d[5mC]*dA*dA*d[5mC]*eA*eT*e[5mC]*e[5mC]*eA) [compound 546214]
% inhibition ([1]; Table 7, approx. 24 hours): 88% | percent inhibition of PKK at 0.19 μM [2, 8]: 0% | percent inhibition of PKK at 0.56 μM [2, 8]: 0% | percent inhibition of PKK at 1.67 μM [2, 8]: 68% | percent inhibition of PKK at 5.00 μM [2, 8]: 85% | IC50 ([2]; 4 point dose response, HepaRG cells, Table 37): 1300 nM

546216 (antisense e[5mC]*eT*eG*eG*eA*dG*dT*dG*dA*dG*dA*dA*d[5mC]*d[5mC]*d[5mC]*eT*eG*eG*e[5mC]*eA) [compound 546216]
% inhibition ([1]; Table 7, approx. 24 hours): 93% | percent inhibition of PKK at 0.19 μM [2, 6]: 62% | percent inhibition of PKK at 0.56 μM [2, 6]: 69% | percent inhibition of PKK at 1.67 μM [2, 6]: 88% | percent inhibition of PKK at 5.00 μM [2, 6]: 88% | percent inhibition of PKK at 5.00 μM [2, 9]: 98% | percent inhibition of PKK at 0.19 0μM [2, 9]: 23% | percent inhibition of PKK at 0.56 0μM [2, 9]: 78% | percent inhibition of PKK at 1.67 1μM [2, 9]: 95% | IC50 [2, 10]: < 200 nM

546247 (e[5mC]*e[5mC]*eA*eA*eA*dG*dT*d[5mC]*dA*dA*d[5mC]*dT*d[5mC]*d[5mC]*d[5mC]*eG*eG*eG*eT*eA; antisense) [compound 546247]
% inhibition ([1]; Table 7, approx. 24 hours): 90% | percent inhibition of PKK at 0.19 μM [2, 11]: 0% | percent inhibition of PKK at 0.56 μM [2, 11]: 29% | percent inhibition of PKK at 1.67 μM [2, 11]: 71% | percent inhibition of PKK at 5.00 μM [2, 11]: 88% | IC50 ([2]; 4 point dose response, HepaRG cells, Table 36): 1100 nM

546248 (e[5mC]*e[5mC]*eT*e[5mC]*e[5mC]*dA*dA*dA*dG*dT*d[5mC]*dA*dA*d[5mC]*dT*e[5mC]*e[5mC]*e[5mC]*eG*eG; antisense) [compound 546248]
% inhibition ([1]; Table 7, approx. 24 hours): 86% | percent inhibition of PKK at 0.19 μM [2, 12]: 25% | percent inhibition of PKK at 0.56 μM [2, 12]: 66% | percent inhibition of PKK at 1.67 μM [2, 12]: 87% | percent inhibition of PKK at 5.00 μM [2, 12]: 93% | IC50 ([2]; 4 point dose response, HepaRG cells, Table 39): 400 nM | percent inhibition of PKK mRNA, 0.19 μM ([2]; HepaRG cells): 0% | percent inhibition of PKK mRNA, 0.56 μM ([2]; HepaRG cells): 59% | percent inhibition of PKK mRNA, 1.67 μM ([2]; HepaRG cells): 73% | percent inhibition of PKK mRNA, 5.00 μM ([2]; HepaRG cells): 89% | IC50 ([2]; HepaRG cells, 0.19-5.00 μM): 800 nM

546253 (eG*eT*e[5mC]*eT*e[5mC]*dT*dT*dG*dG*d[5mC]*dA*dA*dA*d[5mC]*dA*eT*eT*e[5mC]*eA*e[5mC]; antisense) [compound 546253]
% inhibition ([1]; Table 8, approx. 24 hours): 98% | percent inhibition of PKK at 0.19 μM [2, 13]: 1% | percent inhibition of PKK at 0.56 μM [2, 13]: 13% | percent inhibition of PKK at 1.67 μM [2, 13]: 46% | percent inhibition of PKK at 5.00 μM [2, 13]: 81% | IC50 ([2]; Table 34, PKK mRNA, HepaRG, electroporation, ~16 h): 1700 nM

546255 (e[5mC]*eT*eT*eT*eG*dT*dG*d[5mC]*dA*dA*dG*dT*d[5mC]*dT*d[5mC]*eT*eT*eG*eG*e[5mC]; antisense) [compound 546255]
% inhibition ([1]; Table 8, approx. 24 hours): 92% | percent inhibition of PKK at 0.19 μM [2, 6]: 32% | percent inhibition of PKK at 0.56 μM [2, 6]: 35% | percent inhibition of PKK at 1.67 μM [2, 6]: 78% | percent inhibition of PKK at 5.00 μM [2, 6]: 87% | IC50 [2, 7]: 500 nM | percent inhibition of PKK mRNA, 0.19 μM ([2]; HepaRG cells): 5% | percent inhibition of PKK mRNA, 0.56 μM ([2]; HepaRG cells): 39% | percent inhibition of PKK mRNA, 1.67 μM ([2]; HepaRG cells): 82% | percent inhibition of PKK mRNA, 5.00 μM ([2]; HepaRG cells): 96% | IC50 ([2]; HepaRG cells, 0.19-5.00 μM): 800 nM

546268 (e[5mC]*eT*eT*e[5mC]*e[5mC]*dT*dT*dA*d[5mC]*dA*dG*dT*d[5mC]*dT*dT*e[5mC]*eT*eG*eG*eG; antisense) [compound 546268]
% inhibition ([1]; Table 8, approx. 24 hours): 93% | percent inhibition of PKK at 0.19 μM [2, 6]: 56% | percent inhibition of PKK at 0.56 μM [2, 6]: 50% | percent inhibition of PKK at 1.67 μM [2, 6]: 82% | percent inhibition of PKK at 5.00 μM [2, 6]: 93% | percent inhibition of PKK at 5.00 μM [2, 9]: 92% | percent inhibition of PKK at 0.19 0μM [2, 9]: 0% | percent inhibition of PKK at 0.56 0μM [2, 9]: 71% | percent inhibition of PKK at 1.67 1μM [2, 9]: 92% | IC50 [2, 10]: 500 nM

546287 (antisense eG*eT*eT*eG*eT*d[5mC]*d[5mC]*d[5mC]*d[5mC]*dA*dG*dT*dG*dT*dT*eA*e[5mC]*eA*e[5mC]*eA) [compound 546287]
% inhibition ([1]; Table 8, approx. 24 hours): 82% | percent inhibition of PKK at 0.19 μM [2, 4]: 0% | percent inhibition of PKK at 0.56 μM [2, 4]: 15% | percent inhibition of PKK at 1.67 μM [2, 4]: 39% | percent inhibition of PKK at 5.00 μM [2, 4]: 89% | IC50 [2, 5]: 1700 nM
